Laboratory results reported in ChEMBL document CHEMBL5120927, “LEGO-Lipophosphonoxins: A Novel Approach in Designing Membrane Targeting Antimicrobials” (J Med Chem, 2022).

System: Enterococcus faecalis
Assay: Antibacterial activity against Enterococcus faecalis ATCC 29212 = CCM 4224 assessed as inhibition of bacterial growth incubated for 24 hrs by microdilution assay
Type: functional
Conditions: not given

Point of comparison: `Cl.Cl.Cl.Cl.Cl.Cl.NCCCN(CCCN)CCP(=O)(OCCCOP(=O)(CCN(CCCN)CCCN)OCC12CC3CC(CC(C3)C1)C2)OCC12CC3CC(CC(C3)C1)C2` (configuration not stated), MIC 8 µg/mL. Against it:
- CCC/C=C\CCOP(=O)(CCN(CCCN)CCCN)OCCCCCCOP(=O)(CCN(CCCN)CCCN)OCC/C=C\CCC.Cl.Cl.Cl.Cl.Cl.Cl (configuration not stated) — higher, > 128 µg/mL
- CCCC/C=C\CCOP(=O)(CCN(CCCN)CCCN)OCCCCCCOP(=O)(CCN(CCCN)CCCN)OCC/C=C\CCCC.Cl.Cl.Cl.Cl.Cl.Cl (configuration not stated) — 2-fold higher, 16 µg/mL

System: Staphylococcus aureus
Assay: Antibacterial activity against Staphylococcus aureus ATCC 29213 = CCM 4223 assessed as inhibition of bacterial growth incubated for 24 hrs by microdilution assay
Type: functional
Conditions: not given

Point of comparison: `CCCC/C=C\CCOP(=O)(CCN(CCCN)CCCN)OCCCCCCOP(=O)(CCN(CCCN)CCCN)OCC/C=C\CCCC.Cl.Cl.Cl.Cl.Cl.Cl` (configuration not stated), MIC 1 µg/mL. Against it:
- Cl.Cl.Cl.Cl.Cl.Cl.NCCCN(CCCN)CCP(=O)(OCCCOP(=O)(CCN(CCCN)CCCN)OCC12CC3CC(CC(C3)C1)C2)OCC12CC3CC(CC(C3)C1)C2 (configuration not stated) — 4-fold higher, 4 µg/mL
- CCC/C=C\CCOP(=O)(CCN(CCCN)CCCN)OCCCCCCOP(=O)(CCN(CCCN)CCCN)OCC/C=C\CCC.Cl.Cl.Cl.Cl.Cl.Cl (configuration not stated) — 4-fold higher, 4 µg/mL

System: Staphylococcus aureus
Assay: Antibacterial activity against Staphylococcus aureus ATCC 29213 = CCM 4223 assessed as inhibition of bacterial growth incubated for 24 hrs in presence of BSA by microdilution assay
Type: functional
Conditions: not given

Point of comparison: `CCC/C=C\CCOP(=O)(CCN(CCCN)CCCN)OCCCCCCOP(=O)(CCN(CCCN)CCCN)OCC/C=C\CCC.Cl.Cl.Cl.Cl.Cl.Cl` (configuration not stated), MIC 16 µg/mL. Against it:
- Cl.Cl.Cl.Cl.Cl.Cl.NCCCN(CCCN)CCP(=O)(OCCCOP(=O)(CCN(CCCN)CCCN)OCC12CC3CC(CC(C3)C1)C2)OCC12CC3CC(CC(C3)C1)C2 (configuration not stated) — 4-fold lower, 4 µg/mL
- CCCC/C=C\CCOP(=O)(CCN(CCCN)CCCN)OCCCCCCOP(=O)(CCN(CCCN)CCCN)OCC/C=C\CCCC.Cl.Cl.Cl.Cl.Cl.Cl (configuration not stated) — 4-fold lower, 4 µg/mL

System: Escherichia coli
Assay: Antibacterial activity against Escherichia coli ATCC 25922 = CCM 3954 assessed as inhibition of bacterial growth incubated for 24 hrs by microdilution assay
Type: functional
Conditions: not given

Point of comparison: `CCC/C=C\CCOP(=O)(CCN(CCCN)CCCN)OCCCCCCOP(=O)(CCN(CCCN)CCCN)OCC/C=C\CCC.Cl.Cl.Cl.Cl.Cl.Cl` (configuration not stated), MIC 16 µg/mL. Against it:
- Cl.Cl.Cl.Cl.Cl.Cl.NCCCN(CCCN)CCP(=O)(OCCCOP(=O)(CCN(CCCN)CCCN)OCC12CC3CC(CC(C3)C1)C2)OCC12CC3CC(CC(C3)C1)C2 (configuration not stated) — 2-fold lower, 8 µg/mL
- CCCC/C=C\CCOP(=O)(CCN(CCCN)CCCN)OCCCCCCOP(=O)(CCN(CCCN)CCCN)OCC/C=C\CCCC.Cl.Cl.Cl.Cl.Cl.Cl (configuration not stated) — 8-fold lower, 2 µg/mL

System: Escherichia coli
Assay: Antibacterial activity against Escherichia coli ATCC 25922 = CCM 3954 assessed as inhibition of bacterial growth incubated for 24 hrs in presence of BSA by microdilution assay
Type: functional
Conditions: not given

Point of comparison: `CCC/C=C\CCOP(=O)(CCN(CCCN)CCCN)OCCCCCCOP(=O)(CCN(CCCN)CCCN)OCC/C=C\CCC.Cl.Cl.Cl.Cl.Cl.Cl` (configuration not stated), MIC 32 µg/mL. Against it:
- Cl.Cl.Cl.Cl.Cl.Cl.NCCCN(CCCN)CCP(=O)(OCCCOP(=O)(CCN(CCCN)CCCN)OCC12CC3CC(CC(C3)C1)C2)OCC12CC3CC(CC(C3)C1)C2 (configuration not stated) — 4-fold lower, 8 µg/mL
- CCCC/C=C\CCOP(=O)(CCN(CCCN)CCCN)OCCCCCCOP(=O)(CCN(CCCN)CCCN)OCC/C=C\CCCC.Cl.Cl.Cl.Cl.Cl.Cl (configuration not stated) — 8-fold lower, 4 µg/mL

System: Pseudomonas aeruginosa
Assay: Antibacterial activity against Pseudomonas aeruginosa ATCC 27853 = CCM 3955 assessed as inhibition of bacterial growth incubated for 24 hrs by microdilution assay
Type: functional
Conditions: not given

Point of comparison: `CCCC/C=C\CCOP(=O)(CCN(CCCN)CCCN)OCCCCCCOP(=O)(CCN(CCCN)CCCN)OCC/C=C\CCCC.Cl.Cl.Cl.Cl.Cl.Cl` (configuration not stated), MIC 16 µg/mL. Against it:
- Cl.Cl.Cl.Cl.Cl.Cl.NCCCN(CCCN)CCP(=O)(OCCCOP(=O)(CCN(CCCN)CCCN)OCC12CC3CC(CC(C3)C1)C2)OCC12CC3CC(CC(C3)C1)C2 (configuration not stated) — 4-fold higher, 64 µg/mL
- CCC/C=C\CCOP(=O)(CCN(CCCN)CCCN)OCCCCCCOP(=O)(CCN(CCCN)CCCN)OCC/C=C\CCC.Cl.Cl.Cl.Cl.Cl.Cl (configuration not stated) — 8-fold higher, 128 µg/mL

System: not listed separately
Assay: Hemolytic activity in human RBC assessed as haemoglobin release measured after 3 hr
Type: toxicity, cell-based, Erythrocyte
Conditions: red blood cells (erythrocytes)

Point of comparison: `CCCC/C=C\CCOP(=O)(CCN(CCCN)CCCN)OCCCCCCOP(=O)(CCN(CCCN)CCCN)OCC/C=C\CCCC.Cl.Cl.Cl.Cl.Cl.Cl` (configuration not stated), HC50 at 3 h 34.8 µg/mL. Against it:
- Cl.Cl.Cl.Cl.Cl.Cl.NCCCN(CCCN)CCP(=O)(OCCCOP(=O)(CCN(CCCN)CCCN)OCC12CC3CC(CC(C3)C1)C2)OCC12CC3CC(CC(C3)C1)C2 (configuration not stated) — higher, > 500 µg/mL
- CCC/C=C\CCOP(=O)(CCN(CCCN)CCCN)OCCCCCCOP(=O)(CCN(CCCN)CCCN)OCC/C=C\CCC.Cl.Cl.Cl.Cl.Cl.Cl (configuration not stated) — higher, > 200 µg/mL

System: not listed separately
Assay: Gradient chromatographic hydrophobicity index of the compound at pH 3.7 by HPLC analysis
Type: ADME
Conditions: not given

Point of comparison: `CCC/C=C\CCOP(=O)(CCN(CCCN)CCCN)OCCCCCCOP(=O)(CCN(CCCN)CCCN)OCC/C=C\CCC.Cl.Cl.Cl.Cl.Cl.Cl` (configuration not stated), CHI 29.6. Against it:
- Cl.Cl.Cl.Cl.Cl.Cl.NCCCN(CCCN)CCP(=O)(OCCCOP(=O)(CCN(CCCN)CCCN)OCC12CC3CC(CC(C3)C1)C2)OCC12CC3CC(CC(C3)C1)C2 (configuration not stated) — higher, 32.6
- CCCC/C=C\CCOP(=O)(CCN(CCCN)CCCN)OCCCCCCOP(=O)(CCN(CCCN)CCCN)OCC/C=C\CCCC.Cl.Cl.Cl.Cl.Cl.Cl (configuration not stated) — higher, 33.8

System: Staphylococcus epidermidis
Assay: Antibacterial activity against Staphylococcus epidermidis CCM 7221 assessed as inhibition of bacterial growth incubated for 24 hrs by microdilution assay
Type: functional
Conditions: not given

Point of comparison: `Cl.Cl.Cl.Cl.Cl.Cl.NCCCN(CCCN)CCP(=O)(OCCCOP(=O)(CCN(CCCN)CCCN)OCC12CC3CC(CC(C3)C1)C2)OCC12CC3CC(CC(C3)C1)C2` (configuration not stated), MIC 2 µg/mL. Against it:
- CCC/C=C\CCOP(=O)(CCN(CCCN)CCCN)OCCCCCCOP(=O)(CCN(CCCN)CCCN)OCC/C=C\CCC.Cl.Cl.Cl.Cl.Cl.Cl (configuration not stated) — 2-fold lower, 1 µg/mL
- CCCC/C=C\CCOP(=O)(CCN(CCCN)CCCN)OCCCCCCOP(=O)(CCN(CCCN)CCCN)OCC/C=C\CCCC.Cl.Cl.Cl.Cl.Cl.Cl (configuration not stated) — 4-fold lower, 0.5 µg/mL

System: Staphylococcus aureus
Assay: Antibacterial activity against methicillin resistant Staphylococcus aureus 4591/A assessed as reduction in microbial growth incubated for 24 hrs by microdilution assay
Type: functional
Conditions: not given

Point of comparison: `Cl.Cl.Cl.Cl.Cl.Cl.NCCCN(CCCN)CCP(=O)(OCCCOP(=O)(CCN(CCCN)CCCN)OCC12CC3CC(CC(C3)C1)C2)OCC12CC3CC(CC(C3)C1)C2` (configuration not stated), MIC 4 µg/mL. Against it:
- CCC/C=C\CCOP(=O)(CCN(CCCN)CCCN)OCCCCCCOP(=O)(CCN(CCCN)CCCN)OCC/C=C\CCC.Cl.Cl.Cl.Cl.Cl.Cl (configuration not stated) — the same, 4 µg/mL
- CCCC/C=C\CCOP(=O)(CCN(CCCN)CCCN)OCCCCCCOP(=O)(CCN(CCCN)CCCN)OCC/C=C\CCCC.Cl.Cl.Cl.Cl.Cl.Cl (configuration not stated) — 4-fold lower, 1 µg/mL

System: Escherichia coli
Assay: Antibacterial activity against multidrug-resistant Escherichia coli CE5556 expressing CTX-M-15 assessed as reduction in microbial growth incubated for 24 hrs by microdilution assay
Type: functional
Conditions: not given

Point of comparison: `CCC/C=C\CCOP(=O)(CCN(CCCN)CCCN)OCCCCCCOP(=O)(CCN(CCCN)CCCN)OCC/C=C\CCC.Cl.Cl.Cl.Cl.Cl.Cl` (configuration not stated), MIC 32 µg/mL. Against it:
- Cl.Cl.Cl.Cl.Cl.Cl.NCCCN(CCCN)CCP(=O)(OCCCOP(=O)(CCN(CCCN)CCCN)OCC12CC3CC(CC(C3)C1)C2)OCC12CC3CC(CC(C3)C1)C2 (configuration not stated) — 2-fold lower, 16 µg/mL
- CCCC/C=C\CCOP(=O)(CCN(CCCN)CCCN)OCCCCCCOP(=O)(CCN(CCCN)CCCN)OCC/C=C\CCCC.Cl.Cl.Cl.Cl.Cl.Cl (configuration not stated) — 16-fold lower, 2 µg/mL

System: Enterococcus faecium
Assay: Antibacterial activity against vancomycin resistant Enterococcus faecium 419/ANA assessed as reduction in microbial growth incubated for 24 hrs by microdilution assay
Type: functional
Conditions: not given

Point of comparison: `Cl.Cl.Cl.Cl.Cl.Cl.NCCCN(CCCN)CCP(=O)(OCCCOP(=O)(CCN(CCCN)CCCN)OCC12CC3CC(CC(C3)C1)C2)OCC12CC3CC(CC(C3)C1)C2` (configuration not stated), MIC 64 µg/mL. Against it:
- CCC/C=C\CCOP(=O)(CCN(CCCN)CCCN)OCCCCCCOP(=O)(CCN(CCCN)CCCN)OCC/C=C\CCC.Cl.Cl.Cl.Cl.Cl.Cl (configuration not stated) — higher, > 128 µg/mL
- CCCC/C=C\CCOP(=O)(CCN(CCCN)CCCN)OCCCCCCOP(=O)(CCN(CCCN)CCCN)OCC/C=C\CCCC.Cl.Cl.Cl.Cl.Cl.Cl (configuration not stated) — the same, 64 µg/mL

System: Pseudomonas aeruginosa
Assay: Antibacterial activity against multidrug-resistant Pseudomonas aeruginosa assessed as reduction in microbial growth incubated for 24 hrs by microdilution assay
Type: functional
Conditions: not given

Point of comparison: `Cl.Cl.Cl.Cl.Cl.Cl.NCCCN(CCCN)CCP(=O)(OCCCOP(=O)(CCN(CCCN)CCCN)OCC12CC3CC(CC(C3)C1)C2)OCC12CC3CC(CC(C3)C1)C2` (configuration not stated), MIC 16 µg/mL. Against it:
- CCC/C=C\CCOP(=O)(CCN(CCCN)CCCN)OCCCCCCOP(=O)(CCN(CCCN)CCCN)OCC/C=C\CCC.Cl.Cl.Cl.Cl.Cl.Cl (configuration not stated) — 8-fold higher, 128 µg/mL
- CCCC/C=C\CCOP(=O)(CCN(CCCN)CCCN)OCCCCCCOP(=O)(CCN(CCCN)CCCN)OCC/C=C\CCCC.Cl.Cl.Cl.Cl.Cl.Cl (configuration not stated) — the same, 16 µg/mL

System: not listed separately
Assay: Cytotoxicity against human HepG2 cells assessed as reduction in cell viability
Type: toxicity, cell-based
Conditions: not given

Point of comparison: `CCCC/C=C\CCOP(=O)(CCN(CCCN)CCCN)OCCCCCCOP(=O)(CCN(CCCN)CCCN)OCC/C=C\CCCC.Cl.Cl.Cl.Cl.Cl.Cl` (configuration not stated), CC50 92.5 µM. Against it:
- Cl.Cl.Cl.Cl.Cl.Cl.NCCCN(CCCN)CCP(=O)(OCCCOP(=O)(CCN(CCCN)CCCN)OCC12CC3CC(CC(C3)C1)C2)OCC12CC3CC(CC(C3)C1)C2 (configuration not stated) — higher, > 99 µM
- CCC/C=C\CCOP(=O)(CCN(CCCN)CCCN)OCCCCCCOP(=O)(CCN(CCCN)CCCN)OCC/C=C\CCC.Cl.Cl.Cl.Cl.Cl.Cl (configuration not stated) — higher, > 99 µM
